Starred links: 1 amine or outer side, 2 acyl side, 3 side chain; linkers in the order of their positions; H or OH if unused. Positions of bridges follow the written chain, without caps; N, C: chain ends. Non-standard residues stand in square brackets, D forms with d. Residues, ends and D or L forms follow the SMILES beside them. Groups on a side chain read outwards from the residue. *: point of attachment. X13 = NC(=O)[C@H](CCCCN*)NC(=O)COCCOCCNC(=O)COCCOCCNC(=O)CC[C@H](NC(=O)CC[C@H](NC(=O)CCCCCCCCCCCCC(=O)O)C(=O)O)C(=O)O; X8 = NC(=O)[C@H](CCCCN*)NC(=O)COCCOCCNC(=O)COCCOCCNC(=O)CC[C@H](NC(=O)CC[C@H](NC(=O)CCCCCCCCCCCCCC(=O)O)C(=O)O)C(=O)O; X3 = NC(=O)[C@H](CCCCN*)NC(=O)CC[C@H](NC(=O)CC[C@H](NC(=O)CCCCCCCCCCCCCCC(=O)O)C(=O)O)C(=O)O; X6 = NC(=O)[C@H](CCCCN*)NC(=O)CC[C@H](NC(=O)CC[C@H](NC(=O)CCCCCCCCCCCCCC(=O)O)C(=O)O)C(=O)O; X10 = NC(=O)[C@H](CCCCN*)NC(=O)CC[C@H](NC(=O)CC[C@H](NC(=O)CCCc1ccc(I)cc1)C(=O)O)C(=O)O; Trp(1-CH2CO) = O=C([C@H](Cc1cn(CC(=O)[*:3])c2ccccc12)N[*:1])[*:2]; Trp(5-OMe) = COc1ccc2[nH]cc(C[C@H](N)C(=O)O)c2c1; Butanoyl(4-(4-I-phenyl)) = O=C(CCCc1ccc(I)cc1)*; Trp(5-OH) = N[C@@H](Cc1c[nH]c2ccc(O)cc12)C(=O)O; Phe(4-COOH) = N[C@@H](Cc1ccc(C(=O)O)cc1)C(=O)O; Trp(7-aza) = N[C@@H](Cc1c[nH]c2ncccc12)C(=O)O; Piperazinyl(4-CH2COOH) = O=C(O)CN1CCN(*)CC1; X7 = O=C(O)CN1CCC(N[*:1])(C(=O)[*:2])CC1; γGlu = O=C(O)[C@H](CCC(=O)[*:2])N[*:1]; Ahp(2) = CCCCC[C@H](N)C(=O)O; NMeK = CN[C@@H](CCCCN)C(=O)O; Aib = CC(C)(N)C(=O)O; CO = O=C([*:1])[*:2]
Each compound was assayed against T1, Recombinant human GhR-Fc protein (Homo sapiens, UniProt P10912) (assay: Binding activity of hGhR binding peptide by surface plasmon resonance (SPR), Biacore T200, single-cycle kinetics). Conditions: human GhR-Fc immobilized on CM5 chip, KD calculated from ka and kd.
T1 construct: purchased R&D Systems
T1 sequence (P10912 with tags, fused parts or gaps limits assumed): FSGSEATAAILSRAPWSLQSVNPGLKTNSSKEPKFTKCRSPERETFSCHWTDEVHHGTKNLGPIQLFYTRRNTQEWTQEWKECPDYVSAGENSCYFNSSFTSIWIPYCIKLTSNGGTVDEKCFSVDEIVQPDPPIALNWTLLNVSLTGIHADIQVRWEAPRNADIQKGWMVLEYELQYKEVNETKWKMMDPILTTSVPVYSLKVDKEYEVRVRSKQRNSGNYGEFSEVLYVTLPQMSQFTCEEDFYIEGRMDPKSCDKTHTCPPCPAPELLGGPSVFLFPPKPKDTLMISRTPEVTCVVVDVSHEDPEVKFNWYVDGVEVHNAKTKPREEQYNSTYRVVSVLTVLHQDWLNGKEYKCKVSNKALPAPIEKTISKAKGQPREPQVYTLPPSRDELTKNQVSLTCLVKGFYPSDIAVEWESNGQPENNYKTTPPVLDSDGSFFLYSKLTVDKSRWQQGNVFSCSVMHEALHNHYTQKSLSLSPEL
Procedure: SPR assay was performed using Biacore T200 (cytiva: Former GE Healthcare). After the equilibration of Series S Sensor Chip CM5 (produced by cytiva: Former GE Healthcare) with Running Buffer (HBS-EP with 1% (v/v) DMSO), an EDC/NHS mixture was injected at a flow rate of 10 μL/min for 7 minutes to thereby activate the functional groups on sensor chip. Recombinant human GhR-Fc protein (R&D Systems) in 10 mM Acetate (pH4.0) was injected immobilized to at a flow rate of 5 μL/min. It took 7 minutes to immobilize the GhR on the substrate surfaces of the sensor chip. Then Ethanolamine was injected at a flow rate of 10 μL/min for 7 minutes. 1M Ethanolamine (aq.) was injected at a flow rate of 10 μL/min for 420 seconds for capping.
Using these Peptide Samples, kinetics of peptides against human GhR-Fc protein were measured. The method adopted for sample measurement was a single-cycle kinetics method. The analysis was conducted using the evaluation software provided with Biacore T200. A DMSO correction curve obtained by solvent correction measurements was applied for the analysis. Kinetics fitting was done on the difference data obtained by subtracting the baseline data from sample measurement data. KD values were calculated based on the association rate constant (ka) and dissociation rate constant (kd).
Furthermore, “obs. m/z [M+2H]2+” indicates the ESI-MS(+) observed value. Unless otherwise specified, this is bivalent ([M+2H]^2+).

Kd	SMILES
1.07 nM	COc1ccc2[nH]cc(C[C@@H]3NC(=O)[C@H](CC(N)=O)NC(=O)[C@H](CO)NC(=O)[C@H](C(C)C)NC(=O)[C@H](C(C)C)NC(=O)[C@H](CCCCNC(=O)CC[C@H](NC(=O)CCCc4ccc(I)cc4)C(=O)O)N(C)C(=O)[C@H](Cc4ccc(O)cc4)NC(=O)CSC[C@@H](C(=O)NCC(=O)N4CCC[C@H]4C(=O)N[C@H](CO)C(=O)N[C@H](CO)C(=O)N[C@H](CO)C(N)=O)NC(=O)[C@H](C(C)C)NC(=O)C(C)(C)NC(=O)[C@H](Cc4c[nH]c5ccc(O)cc45)NC(=O)[C@H](CCCCN)NC(=O)[C@H](Cc4ccc(O)cc4)NC3=O)c2c1 [Compound 46] ({CH2CO}-Y[NMeK]([γGlu-Butanoyl(4-(4-I-phenyl))])VVSN[Trp(5-OMe)]YK[Trp(5-OH)][Aib]VCGP[dS][dS][dS]-NH2; thioether N-13)
3.7 nM	CC(C)[C@@H]1NC(=O)[C@H](C(C)C)NC(=O)[C@@H]2CCCCNC(=O)Cn3cc(c4ccccc43)C[C@H](NC(=O)[C@H](CC(N)=O)NC(=O)[C@H](CO)NC1=O)C(=O)N[C@@H](Cc1ccc(C(=O)O)cc1)C(=O)N[C@@H](CCCCN)C(=O)N[C@@H](Cc1c[nH]c3ccc(O)cc13)C(=O)NC(C)(C)C(=O)N[C@@H](C(C)C)C(=O)N[C@H](C(=O)NCCCC[C@H](NC(=O)COCCOCCNC(=O)COCCOCCNC(=O)CC[C@H](NC(=O)CC[C@H](NC(=O)CCCCCCCCCCCCCC(=O)O)C(=O)O)C(=O)O)C(N)=O)CSCC(=O)N[C@@H](Cc1ccc(C(=O)O)cc1)C(=O)N2C [Compound 63] ({CH2CO}-[Phe(4-COOH)][NMeK]VVSN[Trp(1-CH2CO)][Phe(4-COOH)]K[Trp(5-OH)][Aib]VC-X8; lactam 2-7; thioether N-13)
2.59 nM	CC(C)[C@@H]1NC(=O)[C@H](C(C)C)NC(=O)[C@@H]2CCCCNC(=O)Cn3cc(c4ccccc43)C[C@H](NC(=O)[C@H](CC(N)=O)NC(=O)[C@H](CO)NC1=O)C(=O)N[C@@H](Cc1ccc(C(=O)O)cc1)C(=O)N[C@@H](CCCCN)C(=O)N[C@@H](Cc1c[nH]c3ccc(O)cc13)C(=O)NC(C)(C)C(=O)N[C@@H](C(C)C)C(=O)N[C@H](C(=O)NCCCC[C@H](NC(=O)CC[C@H](NC(=O)CC[C@H](NC(=O)CCCCCCCCCCCCCCC(=O)O)C(=O)O)C(=O)O)C(N)=O)CSCC(=O)N[C@@H](Cc1ccc(O)cc1)C(=O)N2C [Compound 24] ({CH2CO}-Y[NMeK]VVSN[Trp(1-CH2CO)][Phe(4-COOH)]K[Trp(5-OH)][Aib]VC-X3; lactam 2-7; thioether N-13)
1.82 nM	CCCCC[C@@H]1NC(=O)[C@H](Cc2ccc(C(=O)O)cc2)NC(=O)[C@@H]2Cc3cn(c4ccccc34)CC(=O)NCCCC[C@@H](C(=O)N[C@@H](C(C)C)C(=O)N[C@@H](C(C)C)C(=O)N[C@@H](CO)C(=O)N[C@@H](CC(N)=O)C(=O)N2)N(C)C(=O)[C@H](Cc2ccc(C(=O)O)cc2)NC(=O)CSC[C@@H](C(=O)NCCCC[C@H](NC(=O)CC[C@H](NC(=O)CC[C@H](NC(=O)CCCc2ccc(I)cc2)C(=O)O)C(=O)O)C(N)=O)NC(=O)[C@H](C(C)C)NC(=O)C(C)(C)NC(=O)[C@H](Cc2c[nH]c3ccc(O)cc23)NC1=O [Compound 6] ({CH2CO}-[Phe(4-COOH)][NMeK]VVSN[Trp(1-CH2CO)][Phe(4-COOH)][Ahp(2)][Trp(5-OH)][Aib]VC-X10; lactam 2-7; thioether N-13)
1.46 nM	CC(C)[C@@H]1NC(=O)[C@H](C(C)C)NC(=O)[C@@H]2CCCCNC(=O)Cn3cc(c4ccccc43)C[C@H](NC(=O)[C@H](CC(N)=O)NC(=O)[C@H](CO)NC1=O)C(=O)N[C@@H](Cc1ccc(C(=O)O)cc1)C(=O)N[C@@H](CCCCN)C(=O)N[C@@H](Cc1c[nH]c3ccc(O)cc13)C(=O)NC(C)(C)C(=O)N[C@@H](C(C)C)C(=O)N[C@H](C(=O)NCCCC[C@H](NC(=O)CC[C@H](NC(=O)CC[C@H](NC(=O)CCCc1ccc(I)cc1)C(=O)O)C(=O)O)C(N)=O)CSCC(=O)N[C@@H](Cc1ccc(C(=O)O)cc1)C(=O)N2C [Compound 9] ({CH2CO}-[Phe(4-COOH)][NMeK]VVSN[Trp(1-CH2CO)][Phe(4-COOH)]K[Trp(5-OH)][Aib]VC-X10; lactam 2-7; thioether N-13)
11.2 nM	CC(C)[C@@H]1NC(=O)[C@H](C(C)C)NC(=O)[C@@H]2CCCCNC(=O)Cn3cc(c4ccccc43)C[C@H](NC(=O)[C@H](CC(N)=O)NC(=O)[C@H](CO)NC1=O)C(=O)N[C@@H](Cc1ccc(C(=O)O)cc1)C(=O)N[C@@H](CCCCNC(=O)N1CCN(CC(=O)O)CC1)C(=O)N[C@@H](Cc1c[nH]c3ccc(O)cc13)C(=O)NC(C)(C)C(=O)N[C@@H](C(C)C)C(=O)N[C@H](C(=O)NCCCC[C@H](NC(=O)CC[C@H](NC(=O)CC[C@H](NC(=O)CCCCCCCCCCCCCCC(=O)O)C(=O)O)C(=O)O)C(N)=O)CSCC(=O)N[C@@H](Cc1ccc(O)cc1)C(=O)N2C [Compound 22] ({CH2CO}-Y[NMeK]VVSN[Trp(1-CH2CO)][Phe(4-COOH)]K([CO-Piperazinyl(4-CH2COOH)])[Trp(5-OH)][Aib]VC-X3; lactam 2-7; thioether N-13)
2.08 nM	CC(C)[C@@H]1NC(=O)[C@H](C(C)C)NC(=O)[C@@H]2CCCCNC(=O)Cn3cc(c4ccccc43)C[C@H](NC(=O)[C@H](CC(N)=O)NC(=O)[C@H](CO)NC1=O)C(=O)N[C@@H](Cc1ccc(C(=O)O)cc1)C(=O)N[C@@H](CCCCN)C(=O)N[C@@H](Cc1c[nH]c3ccc(O)cc13)C(=O)NC1(CCN(CC(=O)O)CC1)C(=O)N[C@@H](C(C)C)C(=O)N[C@H](C(=O)NCCCC[C@H](NC(=O)CC[C@H](NC(=O)CC[C@H](NC(=O)CCCc1ccc(I)cc1)C(=O)O)C(=O)O)C(N)=O)CSCC(=O)N[C@@H](Cc1ccc(C(=O)O)cc1)C(=O)N2C [Compound 8] ({CH2CO}-[Phe(4-COOH)][NMeK]VVSN[Trp(1-CH2CO)][Phe(4-COOH)]K[Trp(5-OH)][X7]VC-X10; lactam 2-7; thioether N-13)
3.88 nM	CC(C)[C@@H]1NC(=O)[C@H](C(C)C)NC(=O)[C@@H]2CCCCNC(=O)Cn3cc(c4ccccc43)C[C@H](NC(=O)[C@H](CC(N)=O)NC(=O)[C@H](CO)NC1=O)C(=O)N[C@@H](Cc1ccc(C(=O)O)cc1)C(=O)N[C@@H](CCCCN)C(=O)N[C@@H](Cc1c[nH]c3ccc(O)cc13)C(=O)NC(C)(C)C(=O)N[C@@H](C(C)C)C(=O)N[C@H](C(=O)NCCCC[C@H](NC(=O)COCCOCCNC(=O)COCCOCCNC(=O)CC[C@H](NC(=O)CC[C@H](NC(=O)CCCCCCCCCCCCC(=O)O)C(=O)O)C(=O)O)C(N)=O)CSCC(=O)N[C@@H](Cc1ccc(C(=O)O)cc1)C(=O)N2C [Compound 62] ({CH2CO}-[Phe(4-COOH)][NMeK]VVSN[Trp(1-CH2CO)][Phe(4-COOH)]K[Trp(5-OH)][Aib]VC-X13; lactam 2-7; thioether N-13)
3.95 nM	CC(C)[C@@H]1NC(=O)[C@H](C(C)C)NC(=O)[C@H](CCCCNC(=O)CC[C@H](NC(=O)CCCc2ccc(I)cc2)C(=O)O)N(C)C(=O)[C@H](Cc2ccc(O)cc2)NC(=O)CSC[C@@H](C(N)=O)NC(=O)[C@H](C(C)C)NC(=O)C(C)(C)NC(=O)[C@H](Cc2c[nH]c3ccc(O)cc23)NC(=O)[C@H](CCCCN)NC(=O)[C@H](Cc2ccc(C(=O)O)cc2)NC(=O)[C@H](Cc2c[nH]c3ncccc23)NC(=O)[C@H](CC(N)=O)NC(=O)[C@H](CO)NC1=O [Compound 43] ({CH2CO}-Y[NMeK]([γGlu-Butanoyl(4-(4-I-phenyl))])VVSN[Trp(7-aza)][Phe(4-COOH)]K[Trp(5-OH)][Aib]VC-NH2; thioether N-13)
4.35 nM	COc1ccc2[nH]cc(C[C@@H]3NC(=O)[C@H](CC(N)=O)NC(=O)[C@H](CO)NC(=O)[C@H](C(C)C)NC(=O)[C@H](C(C)C)NC(=O)[C@H](CCCCNC(=O)CC[C@H](NC(=O)CCCc4ccc(I)cc4)C(=O)O)N(C)C(=O)[C@H](Cc4ccc(O)cc4)NC(=O)CSC[C@@H](C(=O)NCC(=O)N4CCC[C@H]4C(=O)N[C@H](CO)C(=O)N[C@H](CO)C(=O)N[C@H](CO)C(N)=O)NC(=O)[C@H](C(C)C)NC(=O)C(C)(C)NC(=O)[C@H](Cc4c[nH]c5ccc(O)cc45)NC(=O)[C@H](CCCCNC(=O)N4CCN(CC(=O)O)CC4)NC(=O)[C@H](Cc4ccc(C(=O)O)cc4)NC3=O)c2c1 [Compound 48] ({CH2CO}-Y[NMeK]([γGlu-Butanoyl(4-(4-I-phenyl))])VVSN[Trp(5-OMe)][Phe(4-COOH)]K([CO-Piperazinyl(4-CH2COOH)])[Trp(5-OH)][Aib]VCGP[dS][dS][dS]-NH2; thioether N-13)
3.1 nM	CC(C)[C@@H]1NC(=O)[C@H](C(C)C)NC(=O)[C@@H]2CCCCNC(=O)Cn3cc(c4ccccc43)C[C@H](NC(=O)[C@H](CC(N)=O)NC(=O)[C@H](CO)NC1=O)C(=O)N[C@@H](Cc1ccc(C(=O)O)cc1)C(=O)N[C@@H](CCCCN)C(=O)N[C@@H](Cc1c[nH]c3ccc(O)cc13)C(=O)NC(C)(C)C(=O)N[C@@H](C(C)C)C(=O)N[C@H](C(=O)NCCCC[C@H](NC(=O)CC[C@H](NC(=O)CC[C@H](NC(=O)CCCCCCCCCCCCCC(=O)O)C(=O)O)C(=O)O)C(N)=O)CSCC(=O)N[C@@H](Cc1ccc(C(=O)O)cc1)C(=O)N2C [Compound 60] ({CH2CO}-[Phe(4-COOH)][NMeK]VVSN[Trp(1-CH2CO)][Phe(4-COOH)]K[Trp(5-OH)][Aib]VC-X6; lactam 2-7; thioether N-13)
